Measurements: PubChem BioAssay (NCI)
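48-hour exposure; five concentrations; linearly interpolated endpoints. The concentration for 50% growth inhibition is given as GI50. TGI: total growth inhibition.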

Legend:
Test in all cases: NCI tumour cell line growth inhibition, 48 h
[1] = test system: 786-0 renal
[2] = test system: KM12 colon
[3] = test system: MALME-3M melanoma
[4] = test system: OVCAR-3 ovarian
[5] = test system: SK-OV-3 ovarian
[6] = test system: SNB-75 CNS
[7] = test system: SW-620 colon
[8] = test system: TK-10 renal
[9] = test system: EKVX NSCLC
[10] = test system: PC-3 prostate

SMILES: CCCCNc1nc(C#N)c(N)s1
- TGI [1]: > 100 µM
- TGI [2]: > 100 µM
- TGI [3]: > 100 µM
- TGI [4]: > 100 µM
- TGI [5]: > 100 µM
- TGI [6]: > 100 µM
- TGI [7]: > 100 µM
- TGI [8]: > 100 µM

SMILES: COC(=O)N/N=C(\Cc1ccccc1)CN(C)C
- TGI [1]: > 100 µM
- TGI [9]: > 100 µM
- TGI [2]: > 100 µM
- TGI [3]: > 100 µM
- TGI [4]: > 100 µM
- TGI [5]: > 100 µM
- TGI [6]: > 100 µM
- TGI [7]: > 100 µM
- TGI [8]: > 100 µM

SMILES: Cn1cc(C(=O)NCCC(=N)N)cc1NC(=O)C1=[N+](C)C=C(NC(=O)c2cccc(C(=O)NC3=CC(C(=O)Nc4cc(C(=O)NCCC(=N)N)cn4C)=[N+](C)C3)c2)C1
- TGI [1]: > 100 µM
- TGI [9]: > 100 µM
- TGI [2]: > 100 µM
- TGI [3]: > 100 µM
- TGI [4]: > 100 µM
- TGI [5]: > 100 µM
- TGI [6]: > 100 µM
- TGI [7]: > 100 µM
- TGI [8]: > 100 µM

SMILES: CCS(CC)(CC)CC1CCCC2=CCC(P(=O)(c3ccccc3)c3ccccc3)CC21 (stereo unspecified)
- TGI [1]: 26.1 µM
- TGI [9]: 28.4 µM
- TGI [2]: 30.6 µM
- TGI [3]: 40 µM
- TGI [4]: 30.5 µM
- TGI [5]: 28.7 µM
- TGI [6]: 25.4 µM
- TGI [7]: 31.5 µM
- TGI [8]: 27 µM

SMILES: Oc1ccccc1/C=C/c1csnn1
- TGI [1]: > 31.6 µM
- TGI [9]: > 100 µM
- TGI [2]: > 100 µM
- TGI [3]: > 100 µM
- TGI [4]: > 100 µM
- TGI [5]: > 100 µM
- TGI [6]: > 100 µM
- TGI [7]: > 100 µM
- TGI [8]: > 100 µM

SMILES: COc1cc2c(c(OC)c1OC)-c1ccc(SC)c(=O)cc1C(CO)C2 (stereo unspecified)
- GI50 [1]: < 0.01 µM
- TGI [1]: > 100 µM
- GI50 [9]: < 0.01 µM
- TGI [9]: > 100 µM
- GI50 [2]: < 0.01 µM
- TGI [2]: 0.079 µM
- GI50 [3]: < 0.01 µM
- TGI [4]: 0.449 µM
- GI50 [5]: < 0.01 µM
- TGI [5]: 31.8 µM
- GI50 [6]: < 0.01 µM
- GI50 [7]: < 0.01 µM
- TGI [7]: > 100 µM
- GI50 [8]: > 100 µM
- TGI [8]: > 100 µM

SMILES: COc1cc(/C=C2/C(=O)N(C(=O)OCC(C)C)C(Cc3cc(OC)c(OC)c(C)c3OC)C(=O)N2Cc2ccccc2)c(OC)c(C)c1OC (stereo unspecified)
- TGI [1]: > 100 µM
- TGI [9]: > 100 µM
- TGI [2]: > 100 µM
- TGI [3]: > 100 µM
- TGI [4]: > 100 µM
- TGI [5]: > 100 µM
- TGI [6]: > 100 µM
- TGI [7]: > 100 µM
- TGI [8]: > 100 µM

SMILES: COc1ccc(Br)c(N/N=C2\CCCNC2=O)c1
- TGI [1]: > 100 µM
- TGI [9]: 78.6 µM
- TGI [2]: > 100 µM
- TGI [3]: > 100 µM
- TGI [4]: > 100 µM
- TGI [5]: > 100 µM
- TGI [6]: > 100 µM
- TGI [7]: > 100 µM
- TGI [8]: > 100 µM

SMILES: CC(=O)CC(=O)OC1CC(C)CCC1C(C)C (stereo unspecified)
- TGI [1]: > 100 µM
- TGI [9]: > 100 µM
- TGI [2]: > 100 µM
- TGI [3]: > 100 µM
- TGI [4]: > 100 µM
- TGI [5]: > 100 µM
- TGI [6]: > 100 µM
- TGI [7]: > 100 µM
- TGI [8]: > 100 µM

SMILES: COC1CC(OS(=O)(=O)c2ccc([N+](=O)[O-])cc2)C(OC(=O)c2ccccc2)C(C)O1 (stereo unspecified)
- TGI [1]: > 100 µM
- TGI [2]: > 100 µM
- TGI [3]: > 100 µM
- TGI [4]: > 100 µM
- TGI [7]: > 100 µM
- TGI [8]: > 100 µM

SMILES: Cc1ccc(S(=O)(=O)OC2CSS(=O)CC2OS(=O)(=O)c2ccc(C)cc2)cc1 (stereo unspecified)
- TGI [1]: 30.5 µM
- TGI [9]: 35.7 µM
- TGI [2]: 31.3 µM
- TGI [3]: 27.8 µM
- TGI [4]: 31.8 µM
- TGI [5]: 38.5 µM
- TGI [6]: 36.2 µM
- TGI [7]: 18.9 µM
- TGI [8]: 28.5 µM

SMILES: COc1cc(C(=O)O[C@H](C(=O)NCCCCCNC(=O)[C@@H](OC(=O)c2cc(OC)cc3c(C)cccc23)[C@]2(C)CO2)[C@]2(C)CO2)c2cccc(C)c2c1
- GI50 [1]: < 0.01 µM
- TGI [1]: 0.0115 µM
- GI50 [9]: 0.635 µM
- TGI [9]: 3.72 µM
- GI50 [2]: 0.5 µM
- TGI [2]: 1.41 µM
- GI50 [4]: 1.61 µM
- TGI [4]: 10.6 µM
- GI50 [10]: 0.997 µM
- TGI [10]: > 41.1 µM
- GI50 [5]: 3.28 µM
- TGI [5]: > 30.1 µM
- GI50 [6]: 0.911 µM
- TGI [6]: 3.43 µM
- GI50 [7]: < 0.0149 µM
- TGI [7]: > 100 µM
- GI50 [8]: 0.661 µM
- TGI [8]: 2.37 µM

SMILES: CCCCOC(=O)C1C2CCC(O2)C1C(=O)OCCCC (stereo unspecified)
- TGI [1]: > 60.9 µM
- TGI [9]: > 100 µM
- TGI [2]: > 100 µM
- TGI [3]: > 100 µM
- TGI [4]: > 100 µM
- TGI [5]: > 100 µM
- TGI [6]: > 100 µM
- TGI [7]: > 22.9 µM
- TGI [8]: > 100 µM

SMILES: COc1cc2c(cc1C)NC(=O)/C2=C/c1ccccn1
- GI50 [1]: 2.48 µM
- TGI [1]: 8.38 µM
- GI50 [9]: 0.0532 µM
- TGI [9]: 6.88 µM
- GI50 [4]: 2.61 µM
- TGI [4]: 6.81 µM
- GI50 [10]: 8.73 µM
- TGI [10]: > 100 µM
- GI50 [5]: 3.41 µM
- TGI [5]: > 100 µM
- GI50 [6]: 8.52 µM
- TGI [6]: > 100 µM
- GI50 [7]: 6.91 µM
- TGI [7]: > 100 µM

SMILES: Oc1c(C(Nc2cccc3cccnc23)c2ccccc2)ccc2cccnc12 (stereo unspecified)
- TGI [1]: > 100 µM
- TGI [9]: > 100 µM
- TGI [2]: > 100 µM
- TGI [3]: > 100 µM
- TGI [4]: > 100 µM
- TGI [7]: > 100 µM

SMILES: Fc1ccc2c(c1)C1=NN(c3ccccc3)C(F)C1CO2 (stereo unspecified)
- GI50 [1]: 12.8 µM
- TGI [1]: > 50 µM
- GI50 [9]: 5.64 µM
- TGI [9]: 16.4 µM
- GI50 [2]: 16.1 µM
- TGI [2]: 45.6 µM
- GI50 [4]: 6.14 µM
- TGI [4]: 19.1 µM
- GI50 [10]: 11.1 µM
- TGI [10]: > 50 µM
- GI50 [5]: 25.3 µM
- TGI [5]: > 50 µM
- GI50 [6]: 9.01 µM
- TGI [6]: 32 µM
- GI50 [7]: 9.95 µM
- TGI [7]: 23.6 µM
- GI50 [8]: 12.5 µM
- TGI [8]: 35.6 µM

SMILES: COc1cc2ccc(/C=C\[N+](=O)[O-])cc2cc1OC
- TGI [1]: 3.09 µM
- TGI [9]: 15.5 µM
- TGI [2]: 19.3 µM
- TGI [4]: 18.1 µM
- TGI [10]: 7.28 µM
- TGI [5]: 28.4 µM
- TGI [6]: 5.76 µM
- TGI [7]: > 24.6 µM
- TGI [8]: 9.01 µM

SMILES: CCOC(=O)NC(=O)c1cn(CCOC(=O)CCCCCCCCC(=O)OCCn2cc(C(=O)NC(=O)OCC)c(=O)[nH]c2=O)c(=O)[nH]c1=O
- TGI [1]: > 100 µM
- TGI [9]: > 100 µM
- TGI [2]: > 100 µM
- TGI [3]: > 100 µM
- TGI [4]: > 100 µM
- TGI [6]: > 100 µM
- TGI [7]: > 100 µM
- TGI [8]: > 100 µM

SMILES: CCC[CH2][Sn]1([CH2]CCC)[O]C(=O)c2cccnc2[O]1
- GI50 [1]: 2.62 µM
- TGI [1]: 8.01 µM
- GI50 [9]: 2.54 µM
- TGI [9]: 8.04 µM
- GI50 [2]: 4.6 µM
- TGI [2]: 17.6 µM
- GI50 [3]: 1.56 µM
- TGI [3]: 4.11 µM
- GI50 [4]: 1.91 µM
- TGI [4]: 8.16 µM
- GI50 [5]: 10 µM
- TGI [5]: 22.1 µM
- GI50 [6]: 2.09 µM
- TGI [6]: 6.78 µM
- GI50 [7]: 1.48 µM
- TGI [7]: 3.6 µM
- GI50 [8]: 2.73 µM
- TGI [8]: 8.23 µM
